Results: patent US6740678B2, “Method of treatment of cardiovascular injuries” (Children's Medical Center Corporation, priority 1998, dated 2004)

How the values were obtained:
[1] = Animal health, weight and tolerability during treatment; type: in vivo, mice
Procedure: Animal health and weight was monitored throughout treatment.
(§1) The Apo E-/-mice received 20 mg/kg of endostatin subcutaneously every day.

Apo E-/-mice [2] = assay: Intimal vessels in aortic sinus plaques by immunohistochemistry (CD31, vWf); type: in vivo; details: for Neovascularization (+) aortic sinus plaques (number): of 22 (endostatin) and 27 (TNP-470) plaques, control 7 of 24; for Percentage of aortic sinus plaques that contained any intimal vessels: treated mice, control 29%
Procedure: To detect intimal capillaries, the hearts and portions of the descending aorta with substantial lesions were embedded in paraffin, sectioned (10 μm), digested with 0.02% protease XXIV (Sigma) for 6 minutes at room temperature, and incubated with rabbit polyclonal anti-human vWf antibody (Dako, Carpinteria, Calif., 1:500 dilution) or rat monoclonal anti-mouse CD31 antibody (Pharmigen, San Diego, Calif., 20 Tg/ml). When acetone-fixed frozen sections were stained, the CD31 antibody was used at 5 Tg/ml. The bound antibodies against vWf or CD31 were detected with biotinylated goat anti-rabbit or rabbit anti-rat (mouse absorbed) antibodies (Vector, Burlinghame, Calif., 1:250 dilution) and the avidin-biotin peroxidase complex (ABC standard kit, Vector). A red reaction product was produced with 3-amino-9-ethyl carbazole substrate (AEC, Dako) and sections were counterstained with Gill's hematoxylin (Sigma). Vascular sections incubated with non-immune serum served as negative controls. Positive staining of the endothelium on the lumen and in adventitial capillaries served as an internal control. Intimal vessels were identified under high power (400×) and counted when both an endothelial cell nucleus and lumen were seen and when the vessel was also observed in an adjacent section.
(§2) Plaque Area. To determine the extent of atherosclerosis at the aortic origin, 40 serial sections (8-10 Tm thickness) of the aortic sinus were collected on 10 slides (Paigen, B., et al., Artherosclerosis 68: 231-40, 1987). Every second slide was stained with hematoxylin and eosin for morphometry. The rest were used for immunohistochemistry to count intimal vessels and determine intimal smooth muscle cell contents. Plaque images were captured at 100× magnification with a Hitachi HV-C20 3CCD digital camera and measured with the Leica Q500MC image analysis program (Dong, Z. M., et al., J. Clin. Invest. 102: 145-52, 1998). Lesion area for each animal was reported as the mean intimal cross-sectional area (mm^2). In the early-stage experiment, plaque involvement in the entire aorta was also measured by image analysis as the percentage of aortic surface area covered with lesions (Tangiala, R. K., et al., J. Lipid. Res. 36: 2320-8, 1995; Dong, Z. M., et al., J. Clin. Invest. 102: 145-52, 1998)

Apo E-/-mice [3] = assay: Extent of atherosclerosis in the entire aorta (Sudan IV stained lesions, photographed aortas); type: in vivo; details: for Median percent plaque area of the entire aorta (Sudan IV-positive lesions): early-stage experiment, treated age 6 to 22 weeks, control 14.4%; for Plaque surface area on photographed images of the entire aorta: treated 20 to 36 weeks, not shown
Source text: (§3) After 16 weeks of treatment, animals were euthanized with methoxyflurane. A blood sample was obtained from the right ventricle for the analysis of serum cholesterol, performed by an automated calorimetric assay on a Hitachi 917 instrument (Children's Hospital, Boston, Mass.). The heart and aorta were perfusion-fixed with 2% paraformaldehyde and dissected as described (Palinski, W., et al., Arterioscler. Thromb. 14: 605-16, 1994; Tangirala, R. K., et al., J. Lipid Res. 36:2320-8, 1995). Atherosclerotic plaques in the aortas were used for histology and plaque areas were only determined at the aortic origin (Paigen, B., et al., Artherosclerosis 68: 231-40, 1987). However, to document the extent of disease in the total aorta, the unopened aortas were photographed.
(§4) The effects of these angiogenesis inhibitors on late stage lesions were then compared to their effects on early lesions, in which intimal vessels were rarely observed. Animals were treated with endostatin or TNP-470 from age 32 to 48 weeks (late-stage experiment) or from 6 to 22 weeks (early-stage experiment). Plaque involvement was measured at the aortic origin. Since the aortas from early stage animals were not used for immunohistochemistry in these experiments, the extent of atherosclerosis was also measured in the entire aorta (percent surface area of Sudan IV stained-lesions; Paliniski, W., et al., Arteriosclr. Thromb. 14: 605-16, 1994).
as §2

angiogenesis = details: corneal micropocket assay; Ingber 1990; cited from earlier work
Apo E-/-mice [4] = assay: Plaque area at the aortic origin in cholesterol-fed Apo E-/- mice; type: in vivo; details: for Plaque measurements at the aortic origin versus control: early-stage experiment, treated age 6 to 22 weeks, not shown; for Inhibition of plaque growth: age 20 to 36 weeks, [100][1-(median treated-0.25)/(median control-0.25)]
Source text: Male Apo E-/-mice (Jackson Labs, Bangor Me.) were fed a 0.15% cholesterol diet (Western Type #88137, Teklad) from age 6-8 weeks. At 20 weeks of age, ten animals were sacrificed to evaluate the baseline extent of atherosclerosis.
as §3, §4, §1
The fumagillin analogue TNP-470 was provided for these studies by TAP Holdings, Deerfield Ill. An injection solution of TNP-470 (3 mg/ml) was freshly prepared and mice received 30 mg/kg subcutaneously every other day. Control animals received a similar volume of saline or endostatin buffer.
as §2

Apo E-/-mice [5] = assay: Intimal smooth muscle cell content of aortic sinus lesions; type: in vivo; details: median (range), control 20.4
Procedure: Smooth muscle cells were identified with a monoclonal IgG2a antibody against human smooth muscle cell I actin (Dako, M0851; Nakashima, Y., et al, Arteriocler. Thromb. 14: 133-40, 1994). Sections were immersed in 0.1 M sodium citrate, pH 6.0 and heated for 10 minutes in the microwave. Primary antibody was bound to sections at 3 Tg/ml and then visualized with biotinylated anti-mouse IgG2a antibody (1:200 dilution, Amersham RPN1181) and the ABC method described above. The adjacent medial layer of vessels served as positive control.
Intimal smooth muscle cell content. To determine if angiogenesis inhibitor treatments affected smooth muscle cell migration or proliferation in lesions, two slides from the middle of the aortic sinus were stained for smooth muscle cell α actin. For each animal, the number of intimal smooth muscle cells and total cell nuclei were counted in 8 non-overlapping fields. A smooth muscle cell was counted only if it stained for smooth muscle cell α actin and its cell nucleus was seen. The mean percentage of smooth muscle cells relative to total cells was determined for each animal.

primary tumor growth = details: 20 mg/kg per day s.c.; Boehm 1997; cited from earlier work
Apo E-/-mice [6] = assay: Plaque cell density of aortic sinus lesions; type: in vivo; details: aortic sinus plaques, median (range), control 1183
Procedure: Plaque cell density. Cell densities in aortic sinus plaques were evaluated to determine if endostatin or TNP-470 treatments affected lesion cellularity. Cell nuclei in the intima of the aortic sinus plaques were counted at three mid-lesion levels (slides 4, 6, and 8). Cell density was reported as the number of cells per intimal area (cells/mm^2).

[7] = first experiment, treated age 20 to 36 weeks, endostatin 20 mg/kg s.c. daily, TNP-470 30 mg/kg s.c. every other day, control 0.751, baseline 0.250
[8] = late-stage experiment, treated age 32 to 48 weeks, control 0.584
[9] = second experiment, treated 20 to 36 weeks, control 0.690

For “O-chloracetyl-carbamoylfumagillol [TNP-470]”, the “Percentage of animals available for analysis” value ([1]; all studies, control 91%) was 89%, the “Weight gained during treatment” value ([1]; treated age 20 to 36 weeks, control 8 g) was 4 g and the “Median weight after treatment” value ([1]; treated age 20 to 36 weeks, control 35 g) was 31 g. For the same substance, the Final weight ([1]; treated age 32 to 48 weeks, control 35 g) was 33 g, the “Neovascularization (+) aortic sinus plaques (number)” value (Apo E-/-mice [2]) was 0 and the “Percentage of aortic sinus plaques that contained any intimal vessels” value (Apo E-/-mice [2]) was 0%. For the same substance, the “Median percent plaque area of the entire aorta (Sudan IV-positive lesions)” value (Apo E-/-mice [3]) was 11.7%, the “Plaque surface area on photographed images of the entire aorta” value (Apo E-/-mice [3]) was “noticeable reduction” and the Inhibition of angiogenesis (angiogenesis) was 70%. The “Plaque measurements at the aortic origin versus control” value (Apo E-/-mice [4]) was “no difference”, the “Inhibition of plaque growth” value (Apo E-/-mice [4]; first experiment) was 70% and the “Median plaque area at the aortic origin” value (Apo E-/-mice [4]; [7]) was 0.402 mm^2. The “Median plaque area at the aortic origin” value (Apo E-/-mice [4]; [8]) was 0.448 mm^2, the “Median plaque area at the aortic origin” value (Apo E-/-mice [4]; [9]) was 0.370 mm^2 and the “SMC (%), median smooth muscle cell content of aortic sinus lesions” value (“SMC (%)” below) (Apo E-/-mice [5]) was 19.8 (14.6-23.5) %.
For endostatin, the Tolerability of injections ([1]; 20 mg/kg s.c. every day) was “tolerated the injections”, the “Percentage of animals available for analysis” value ([1]; mouse, in vivo) was 92% and the “Neovascularization (+) aortic sinus plaques (number)” value (Apo E-/-mice [2]) was 1. The “Percentage of aortic sinus plaques that contained any intimal vessels” value (Apo E-/-mice [2]) was 5%, the “Median percent plaque area of the entire aorta (Sudan IV-positive lesions)” value (Apo E-/-mice [3]) was 9.6% and the “Plaque surface area on photographed images of the entire aorta” value (Apo E-/-mice [3]) was “noticeable reduction”. For the same substance, the “Inhibition of primary tumor growth” value (primary tumor growth) was “over 95%”, the “Cell Density, median” value (Apo E-/-mice [6]) was 1645 cells/mm^2 and the “Cell Density, median” value (Apo E-/-mice [6]; listed as Endostatin) was 1646 (962-2361) cells/mm^2. For the same substance, the “Plaque measurements at the aortic origin versus control” value (Apo E-/-mice [4]) was “no difference”, the “Inhibition of plaque growth” value (Apo E-/-mice [4]; first experiment) was 85% and the “Median plaque area at the aortic origin” value (Apo E-/-mice [4]; [7]) was 0.321 mm^2. For the same substance, the “Median plaque area at the aortic origin” value (Apo E-/-mice [4]; [8]) was 0.422 mm^2, the “Median plaque area at the aortic origin” value (Apo E-/-mice [4]; [9]) was 0.475 mm^2 and the “SMC (%)” value (Apo E-/-mice [5]) was 19.4%. The “SMC (%)” value (Apo E-/-mice [5]; listed as Endostatin) was 19.4 (16.2-22.7) %.
